Results reported in patent US20120064180A1, “USE OF NO AND NO DONORS FOR TERMINATING DORMANCY IN INVERTEBRATES” (UNIVERSITEIT GENT, priority 2009, published 2012).

Key:
[1] = system: Bolshoye Yarovoye Artemia cysts (ARC BY 1706); assay: Post-diapause development of Bolshoye Yarovoye strain encysted Artemia embryos with NO donors; assay type: in vivo
Method: Encysted embryos (cysts) from a parthenogenetic strain of Artemia obtained in winter 2005-2006 in Bolshoye Yarovoye (Altay Region: 52° 51′64″ N-78° 37′32″ E), Russia (Artemia Reference Center (ARC) code number BY 1706), were stored in the dark at 4° C. in dry sealed bags. For the experiment, the cysts were grown at 26-28° C. with constant illumination in 25 ml of sea water under varying experimental conditions as detailed below.
To quantify larval (nauplii) emergence and hatching (FIG. 1) which served as measures of cyst development, 6 samples of 250 μl from each 50 ml tube were mixed individually with 250 μl of sea water and 2 drops of Lugol's solution (Van Stappen, G, 1996) prior to counting nauplii (N) and umbrella (U) with the aid of a dissecting microscope. […] The extent of development was determined as the percent of developed cysts which was calculated as either the number of hatched larvae, or the number of hatched and emerged larvae, obtained from 100 cysts, the latter represented by the sum of hatched nauplii (larvae), emerged larvae and undeveloped cysts containing embryos.
The hatching percentage (H %) was calculated according to: […]
The hatching percentage plus (H^+%) was calculated according to: […]
The percent of developed cysts was calculated as described above.

[2] = system: diapaused pupae of Heliothis virescens; conditions: 30 min dip
Method: The larval stages of the tobacco budworm Heliothis virescens (Lepidoptera: Noctuidae) were reared on an artificial diet at standard conditions of 25° C. and long light conditions with 14 h light (Smagghe G et al., 1994). To produce nondiapause pupae, the larvae were kept at these conditions throughout development, whereas for pupal diapause induction, third instar larvae were transferred to 18° C. and short light conditions of 8 h light. The pupal stemma were examined to check the diapause status as described (Philips J R et al., 1966).
The treatment was done in capped plastic Falcon tubes of 10 ml. Controls were dipped in distilled water. After treatment, pupae were put in 9-cm Petri dishes, lined with a filter paper and kept at 25° C. and 14 h light, and development of adults was scored at daily intervals. Per treatment, 20 pupae were tested. Means±SD were compared to controls with a Student's t-test.

[3] = system: eggs with diapaused embryos of Bombyx mori; assay: Termination of embryonic diapause in eggs dipped in NO donor or HCl; assay type: in vivo; conditions: SpermineNONOate 1 mM 30 min dip; 20% HCl 5 min 48° C.
Method: All experiments were carried out on silkmoth strain Bombyx mori J106 (Lepidoptera: Bombycidae). Larvae were maintained on an artificial diet (Yakuruto Co.) under standard conditions of 25° C., 65% relevant humidity and 16 h light ([…] et al., 2003). Egg batches were collected from a continuous insect colony and used for the experiments. […] The latter treatment is the normally used procedure to break diapause in eggs with diapaused embryos for maintenance of the insect colony of B. mori ([…] et al., 2003). In a water-control, eggs with diapaused embryos were dipped in distilled water only, and in a blank-control, eggs with diapaused were not treated. […] The numbers of eggs with diapaused embryos per treatment (n) are given with the results.

N-[4-[1-(3-aminopropyl)-2-hydroxy-2-nitrosohydrazinobutyl]-1,3-propane diamine [Spermine NONOate]
hatching after 24 hours ([1]; 40 and 60 μM, 24 hours, overcome by 48 hr): less dramatic, but obvious | concentration at which NO donor was most effective on cyst development ([1]; Bolshoye Yarovoye cysts, FIG. 2A-F): 4.0 µM | time to develop into the adult stage ([2]; 1000 μM, control 9.17±0.75 d, p=0.01): 7.60 ± 0.89 days | time to adult stage versus controls ([2]; 10 and 100 μM): similar | Number of developed neonates at day 6 [3]: 28 | Number of developed neonates at day 7 [3]: 22 | Number of developed neonates at day 8 [3]: 10 | Number of developed neonates at day 14 [3]: 0 | Number of undeveloped eggs at day 14 [3]: 10 | eggs developed into neonate larvae at 6-8 days after treatment (total) [3]: 86% | percentage of developed neonates at day 14 [3]: (0%)
